Source: article PMC9190014, “Structure, dynamics, and molecular inhibition of the Staphylococcus aureus m^1A22-tRNA methyltransferase TrmK” (The Journal of Biological Chemistry, 2022)
Where two headings read alike, the source gives them in different places.

Assays:
[1] = target: T1, m1A22-tRNA methyltransferase TrmK (SaTrmK) (Staphylococcus aureus, UniProt Q2FY13); test: ITC; co-crystal structure at […] Å; DSF; assay type: binding
T1 construct: gene SAOUHSC_01661; recombinant SaTrmK, His-tag cleaved by TEVP, N-terminal glycine residue left
T1 sequence (Q2FY13 entry or part of it): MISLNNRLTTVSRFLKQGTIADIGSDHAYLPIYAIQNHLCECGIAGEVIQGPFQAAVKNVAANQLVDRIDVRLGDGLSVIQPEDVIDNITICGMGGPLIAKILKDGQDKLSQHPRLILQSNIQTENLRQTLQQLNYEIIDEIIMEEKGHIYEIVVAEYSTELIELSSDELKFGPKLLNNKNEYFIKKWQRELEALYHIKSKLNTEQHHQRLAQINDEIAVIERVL

[2] = target: T1, m1A22-tRNA methyltransferase TrmK (SaTrmK); test: ITC; co-crystal structure at […] Å; DSF; assay type: binding; remark: listed apart in the source
[3] = target: T1, m1A22-tRNA methyltransferase TrmK (SaTrmK); test: intact-mass ESI-MS and LC-MS/MS peptide mapping of covalent adduct; MTase-Glo inhibition assay; assay type: binding
[4] = target: T1, m1A22-tRNA methyltransferase TrmK (SaTrmK); test: MTase-Glo methyltransferase assay with tRNA-Leu, single concentration; assay type: biochemical

`Nc1ncnc2c1ncn2[C@@H]1O[C@H](CSCC[C@H](N)C(=O)O)[C@@H](O)[C@H]1O` [SAH] gave a Kd [1] of 0.94 ± 0.05 µM.

With `C[S@@+](CC[C@H](N)C(=O)O)C[C@H]1O[C@@H](n2cnc3c(N)ncnc32)[C@H](O)[C@@H]1O` [SAM] the Kd [2] was 39 ± 4 µM.

`CC1=CC(=O)c2c(O)cccc2C1=O` [plumbagin, 5-hydroxy-2-methyl-1,4-naphtoquinone] was tested, and the inhibition at 5 µM [3] was roughly 93%.

For `Nc1ncnc2c1ncn2[C@@H]1O[C@H](C[C@@H](N)CC[C@H](N)C(=O)O)[C@@H](O)[C@H]1O` [sinefungin], the inhibition at 10 µM [4] was roughly 98%.
